Tests used:
[1] = system: growth factors and anti-inflammatory proteins; experiment: Expression of growth factors and anti-inflammatory proteins in dogs on supplemental arginine; assay type: in vivo, dog; conditions: dietary supplementation
[2] = system: transient cerebral ischemia in an ovariectomized rat model; experiment: Ischemic lesion (infarct) volume by TTC staining after transient middle cerebral artery (tMCA) occlusion; assay type: in vivo; conditions: all rats; vs control diet; 60 min tMCA occlusion, 24 hours reperfusion; FIG. 1
Method: Animals. Female Charles Rivers Sprague-Dawley rats (250 g, Wilmington, Mass.) were acclimatized to animal facilities three days prior to surgery with a 12 hour light-dark cycle. Bilateral ovariectomy was performed 2 weeks before diet feeding began. Four weeks after the start of diet feeding, transient middle cerebral artery (tMCA) occlusion under anesthesia was performed following intraperitoneal (i.p.) injection of ketamine (60 mg/kg) and xylazine (10 mg/kg).
Diet and Hormone Administration. Fourteen to 15 rats per group were randomly assigned to one of five treatment groups. These groups were as follows: […]
All diets were fed ad libitum to the rats for four weeks. […] Also once per week, body weights and food intake were determined. […]
Middle cerebral artery occlusion and samples preparation. […] Rectal temperature was monitored and maintained between 36.5 and 37° C. with a heating pad throughout the procedure. […]
Some animals were eliminated from the study during the protocol. The number of animals quantified for lesion volume ranged from 12 to 15 per group.
Statistical methods. Results were analyzed with one-way analysis of variance (ANOVA) using Prism software(Graphpad Inc; San Diego, Calif.). The significance of differences among groups was determined by one-way ANOVA followed by Tukey's multiple comparison tests. All values were expressed as mean +/−SEM.

[3] = system: transient cerebral ischemia in an ovariectomized rat model; experiment: Cerebral ischemia-induced apoptosis by TUNEL staining after tMCA occlusion; assay type: in vivo; conditions: average of three brain regions, normalized to DAPI total cells; vs control; FIG. 3

SMILES | expression of multiple growth factors and anti-inflammatory proteins [1] | effect on infarct size / mean infarct volume (in words) [2] | TUNEL staining / TUNEL-positive cell counts (apoptosis), in words [3]
N=C(N)NCCC[C@H](N)C(=O)O [arginine, L-arginine] | increased expression of multiple growth factors and anti-inflammatory proteins in a dose-dependent manner | – | –
C[C@]12CC[C@@H]3c4ccc(O)cc4CC[C@H]3[C@@H]1CC[C@@H]2O [estradiol, 17 β-estradiol] | – | reduced infarct size | substantial reduction in TUNEL staining
